Experimental data taken from US8519007B2, “Use certain diterpene compounds in the treatment of androgen receptor-associated diseases” (Academia Sinica, priority 2008, dated 2013).

Target: T1, AR-LBD (Homo sapiens, UniProt P10275)
T1 construct: expressed in transfected cells; host or cells: 22Rv1
T1 sequence (P10275 669-900 limits assumed): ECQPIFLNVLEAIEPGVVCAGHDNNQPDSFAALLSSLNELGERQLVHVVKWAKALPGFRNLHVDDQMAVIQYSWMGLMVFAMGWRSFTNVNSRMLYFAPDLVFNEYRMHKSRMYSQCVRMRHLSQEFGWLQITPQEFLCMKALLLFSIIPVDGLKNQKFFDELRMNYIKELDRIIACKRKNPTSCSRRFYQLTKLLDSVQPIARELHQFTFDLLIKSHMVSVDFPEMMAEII
Assay: One-hybrid assay (GBD-AR-LBD) in 22Rv1 cells
Type: cell-based
Settings: 10 nM DHT, 20 h
Method: The molecular mechanism whereby HDHS represses AR activity was analyzed by the following experiments. […] The transfected cells were treated with vehicle or various compounds for another 20 h.

`CC(C)c1cc2c(cc1O)[C@@]1(C)CCCC(C)(C)C1=C(O)C2=O` [Compound 2, 6,12-dihydroxyabieta-5,8,11,13-tetraen-7-one] was tested, and the “effect on DHT-induction of AR-LBD (one-hybrid luciferase)” value was “inhibited the AR-LBD dose-dependently”.
